Assay [1] is described as follows: Inhibition of human c-SRC expressed in mouse NIH/3T3 cells assessed as inhibition of cell growth in presence of 1.5% FCS by BrdU incorporation assay.
Assay [2] is described as follows: Inhibition of human c-SRC expressed in mouse NIH/3T3 cells assessed as inhibition of cell growth in presence of 0.5% FCS.

In BindingDB's records for doi:10.1021/acs.jmedchem.8b00164 (Athenex, 2018) one finds IC50 data, which are given here for four molecules.

Molecules are shown by their SMILES.

The IC50 is the concentration needed to halve the response being measured. Turning to `O=C(Cc1ccc(-c2ccccc2)cn1)NCc1cccc(F)c1`, in assay [1], the IC50 came to 269 nM.
Same read-out and setting: for `O=C(Cc1ccc(-c2ccc(OCCN3CCOCC3)cc2)cn1)NCc1cccc(F)c1` the value was 118 nM; for `O=C(Cc1ccc(-c2ccccc2)cc1)NCc1cccc(F)c1`, 349 nM.
`O=C(Cc1ccc(-c2ccc(OCCN3CCOCC3)cc2)cn1)NCc1ccccc1` [N-benzyl-2-(5-(4-(2-morpholinoethoxy)phenyl)pyridin-2-yl)acetamide]: the IC50 was 6.5 nM in assay [2] and 13 nM in assay [1].
